For assay [1], the target named is T1, AKT1/PPP1CA (Homo sapiens) (UniProt P62136+P31749). The assay can be described thus: Induction of PPI-mediated AKT dephosphorylation in human LnCaP cells transfected with human Halo/FLAG-tagged PP1CA at 10 uM incubated for 8 hrs by Western blot analysis. It is filed as cell-based.
The target of assay [2] is T1, AKT1/PPP1CA (Homo sapiens). The assay can be described thus: Induction of PPI-mediated AKT dephosphorylation in human PC3 cells transfected with human Halo/FLAG-tagged PP1CA at 10 uM incubated for 8 hrs by Western blot analysis. The format is cell-based.
Assay [3] concerns the target T1, AKT1/PPP1CA (Homo sapiens). In words: Induction of PPI-mediated AKT dephosphorylation in human MCF7/neo HER2 cells transfected with human Halo/FLAG-tagged PP1CA at 10 uM incubated for 8 hrs by Western blot analysis. It is filed as cell-based.
Assay [4] has as its target T1, AKT1/PPP1CA (Homo sapiens). In words: Induction of PPI (unknown origin)-mediated pAKT (T308) (unknown origin) dephosphorylation at 0.25 to 10 uM incubated for 1 hr by Western blot analysis. The format is protein assay.
For assay [5], the target named is T1, AKT1/PPP1CA (Homo sapiens). In words: Induction of PPI-mediated AKT dephosphorylation in human LnCaP cells at 0.1 to 10 uM incubated for 2 hrs by Western blot analysis. It is filed as cell-based.
The target of assay [6] is T1, AKT1/PPP1CA (Homo sapiens). The assay can be described thus: Induction of PPI-mediated AKT dephosphorylation in human PC3 cells assessed as increase in AKT S473 dephosphorylation at 10 uM incubated for 8 hrs by Western blot analysis. It is filed as cell-based.
In assay [7] the target is T1, AKT1/PPP1CA (Homo sapiens). In words: Induction of PPI-mediated AKT dephosphorylation in human LnCaP cells assessed as reduction in S6 phosphorylation at 10 uM incubated for 8 hrs by Western blot analysis. The format is cell-based.
The target in assay [8] is T1, AKT1/PPP1CA (Homo sapiens). In words: Induction of PPI-mediated AKT dephosphorylation in human PC3 cells assessed as increase in AKT T308 dephosphorylation at 10 uM incubated for 8 hrs by Western blot analysis. It is filed as cell-based.
Assay [9] deals with T1, AKT1/PPP1CA (Homo sapiens). In words: Induction of PPI-mediated AKT dephosphorylation in human MCF7/neo HER2 cells assessed as increase in AKT […] dephosphorylation at 10 uM incubated for 8 hrs by Western blot analysis. The format is cell-based.
For assay [10], the target named is T1, AKT1/PPP1CA (Homo sapiens). In words: Induction of PPI-mediated AKT dephosphorylation in human LnCaP cells assessed as increase in AKT T308 dephosphorylation at 10 uM incubated for 8 hrs by Western blot analysis. It is filed as cell-based.
Assay [11] deals with T1, AKT1/PPP1CA (Homo sapiens). In words: Induction of PPI-mediated AKT dephosphorylation in human LnCaP cells assessed as increase in AKT T308 dephosphorylation at 10 uM incubated for 6 and 8 hrs by Western blot analysis. It is filed as cell-based.
Assay [12] has as its target T1, AKT1/PPP1CA (Homo sapiens). In words: Induction of PPI-mediated AKT dephosphorylation in human LnCaP cells assessed as increase in AKT S473 dephosphorylation at 10 uM incubated for 8 hrs by Western blot analysis. It is filed as cell-based.
Assay [13] deals with T1, AKT1/PPP1CA (Homo sapiens). The assay can be described thus: Induction of PPI-mediated AKT dephosphorylation in human MCF7/neo HER2 cells assessed as increase in AKT T308dephosphorylation at 10 uM incubated for 8 hrs by Western blot analysis. It is filed as cell-based.
For assay [14], the target named is EGFR/PPP1CA (Homo sapiens) (UniProt P00533+P62136). The assay can be described thus: Induction of PPI-mediated EGFR dephosphorylation in human HCC827 cells transfected with human Halo/FLAG-tagged PP1CA assessed as increase in EGFR Y1068 dephosphorylation at 10 uM incubated for 8 hrs by Western blot analysis. The format is cell-based.
Sequence of EGFR/PPP1CA (Homo sapiens) (P00533 whole entry, looked up): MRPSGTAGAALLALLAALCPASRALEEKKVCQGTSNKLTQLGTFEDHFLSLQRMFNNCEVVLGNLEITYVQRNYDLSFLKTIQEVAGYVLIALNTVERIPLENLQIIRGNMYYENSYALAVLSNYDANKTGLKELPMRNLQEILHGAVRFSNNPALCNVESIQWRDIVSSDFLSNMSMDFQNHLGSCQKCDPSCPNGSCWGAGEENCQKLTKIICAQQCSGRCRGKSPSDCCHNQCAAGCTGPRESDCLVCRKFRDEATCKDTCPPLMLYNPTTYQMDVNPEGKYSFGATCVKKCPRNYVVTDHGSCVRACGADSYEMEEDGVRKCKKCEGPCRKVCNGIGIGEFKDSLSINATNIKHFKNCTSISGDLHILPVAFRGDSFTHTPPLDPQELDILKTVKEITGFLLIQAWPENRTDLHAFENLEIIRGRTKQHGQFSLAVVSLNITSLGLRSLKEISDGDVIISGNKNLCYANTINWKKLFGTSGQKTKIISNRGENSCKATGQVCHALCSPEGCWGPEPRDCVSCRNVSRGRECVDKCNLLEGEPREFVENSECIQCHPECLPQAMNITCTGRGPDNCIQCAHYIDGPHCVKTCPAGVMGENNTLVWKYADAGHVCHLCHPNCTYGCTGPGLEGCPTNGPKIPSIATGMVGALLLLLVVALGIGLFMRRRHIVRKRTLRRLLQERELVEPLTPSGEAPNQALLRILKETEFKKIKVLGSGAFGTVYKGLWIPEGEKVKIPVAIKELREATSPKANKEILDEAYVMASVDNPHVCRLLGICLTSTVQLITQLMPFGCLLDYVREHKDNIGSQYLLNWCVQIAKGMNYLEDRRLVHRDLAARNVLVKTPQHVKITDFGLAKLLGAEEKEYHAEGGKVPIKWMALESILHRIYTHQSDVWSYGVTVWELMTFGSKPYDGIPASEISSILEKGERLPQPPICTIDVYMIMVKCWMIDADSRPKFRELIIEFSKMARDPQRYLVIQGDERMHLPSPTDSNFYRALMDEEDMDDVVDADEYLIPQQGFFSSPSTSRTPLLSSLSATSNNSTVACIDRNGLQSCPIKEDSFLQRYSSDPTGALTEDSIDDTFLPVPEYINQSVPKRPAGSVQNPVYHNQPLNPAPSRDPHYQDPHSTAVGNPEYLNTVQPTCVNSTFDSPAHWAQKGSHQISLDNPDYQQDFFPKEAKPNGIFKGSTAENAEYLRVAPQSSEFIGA
Sequence of EGFR/PPP1CA (Homo sapiens) (P62136 whole entry, looked up): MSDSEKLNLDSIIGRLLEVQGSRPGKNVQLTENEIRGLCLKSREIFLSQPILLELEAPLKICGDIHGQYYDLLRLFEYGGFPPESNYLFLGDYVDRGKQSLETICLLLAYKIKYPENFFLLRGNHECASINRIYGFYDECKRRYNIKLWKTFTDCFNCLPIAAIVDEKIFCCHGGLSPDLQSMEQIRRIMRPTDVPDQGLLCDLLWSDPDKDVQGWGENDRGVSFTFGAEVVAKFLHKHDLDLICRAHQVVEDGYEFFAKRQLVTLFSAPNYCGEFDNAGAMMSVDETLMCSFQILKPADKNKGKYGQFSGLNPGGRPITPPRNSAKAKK
Another assay deals with HCC827. The assay can be described thus: Induction of dephosphorylation of EGFR Y1068 in human HCC827 cells at 10 uM incubated for 8 hrs by Western blot analysis. The format is functional, cell-based.
The target in assay [15] is T1, AKT1/PPP1CA (Homo sapiens). In words: Induction of PPI-mediated AKT dephosphorylation in human LnCaP cells assessed as increase in AKT dephosphorylation at 50 uM incubated for 8 hrs by Western blot analysis. It is filed as cell-based.
Assay [16] has as its target T1, AKT1/PPP1CA (Homo sapiens). The assay can be described thus: Induction of PPI-mediated AKT dephosphorylation in human LnCaP cells assessed as increase in AKT T308 dephosphorylation at 10 uM incubated for 8 hrs in presence of PPI siRNA by Western blot analysis. The format is cell-based.
For assay [17], the target named is T1, AKT1/PPP1CA (Homo sapiens). The assay can be described thus: Induction of PPI (unknown origin)-mediated pAKT (T308) (unknown origin) dephosphorylation incubated for 1 hr by Western blot analysis. It is filed as protein assay.

Active and inactive are the calls of the source. The calls are words filed in the database; no cut-off is given here. Residues, ends and D or L forms follow the SMILES beside them. *: point of attachment. X1 = O=C(C*)NCCOCCOCC(=O)Nc1ccc2[nH]c(=O)n(C3CCN(Cc4ccc(-c5nc6cc[nH]c(=O)c6cc5-c5ccccc5)cc4)CC3)c2c1

T1 sequence (P31749 whole entry, looked up): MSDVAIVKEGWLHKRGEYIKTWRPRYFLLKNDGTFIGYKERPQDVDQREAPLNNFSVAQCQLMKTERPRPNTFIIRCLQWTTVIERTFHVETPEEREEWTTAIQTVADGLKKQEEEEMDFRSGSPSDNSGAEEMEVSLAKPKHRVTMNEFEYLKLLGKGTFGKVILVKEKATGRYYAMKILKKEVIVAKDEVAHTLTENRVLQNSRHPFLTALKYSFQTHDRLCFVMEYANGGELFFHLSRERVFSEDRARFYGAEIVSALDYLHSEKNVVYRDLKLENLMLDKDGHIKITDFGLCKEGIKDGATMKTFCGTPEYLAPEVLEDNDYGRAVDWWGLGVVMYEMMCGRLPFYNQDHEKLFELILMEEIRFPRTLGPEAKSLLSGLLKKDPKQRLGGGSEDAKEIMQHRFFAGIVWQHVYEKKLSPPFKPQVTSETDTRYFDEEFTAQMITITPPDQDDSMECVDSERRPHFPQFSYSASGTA
T1 sequence (P62136 whole entry, looked up): as the sequence (P62136 whole entry, looked up) above

On to `O=C(CCC(=O)NCCOCCOCC(=O)Nc1ccc2[nH]c(=O)n(C3CCN(Cc4ccc(-c5nc6cc[nH]c(=O)c6cc5-c5ccccc5)cc4)CC3)c2c1)NCCOCCOCCCCCCCl`, for which the result in assay [1], in [2] and in assay [3] was Active.
Regarding `CC[C@H](C)[C@H](NC(=O)[C@@H](NC(=O)[C@H](CCC(=O)O)NC(=O)[C@H](C)NC(=O)[C@H](C)NC(=O)[C@H](CCC(=O)O)NC(=O)[C@H](C)NC(=O)[C@H](Cc1ccccc1)NC(=O)[C@@H](NC(=O)[C@@H](NC(=O)[C@H](CCCNC(=N)N)NC(=O)[C@H](C)NC(=O)[C@H](CC(N)=O)NC(=O)[C@H](CCCCN)NC(=O)[C@H](CCCNC(=N)N)NC(=O)[C@H](CCCCN)NC(=O)[C@H](CCCNC(=N)N)NC(=O)[C@H](CCCCN)NC(=O)[C@@H]1CCCN1C(=O)[C@H](CCCNC(=N)N)NC(=O)[C@H](CSCC(=O)NCCOCCOCC(=O)Nc1ccc2[nH]c(=O)n(C3CCN(Cc4ccc(-c5nc6cc[nH]c(=O)c6cc5-c5ccccc5)cc4)CC3)c2c1)NC(C)=O)C(C)C)[C@@H](C)O)[C@@H](C)CC)C(=O)O` (Ac-C(X1)RPKRKRKNARVTFAEAAEII-OH), in assay [4], the result was Active. In assay [5], the outcome was inactive.
Consider `CC(=O)N[C@@H](CSCC(=O)NCCOCCOCC(=O)Nc1ccc2[nH]c(=O)n(C3CCN(Cc4ccc(-c5nc6cc[nH]c(=O)c6cc5-c5ccccc5)cc4)CC3)c2c1)C(=O)N[C@@H](CCCNC(=N)N)C(=O)N[C@H](C(=O)N[C@@H](CO)C(=O)N[C@@H](C)C(=O)O)C(C)C`, for which the result in [6], in assay [8], in [9], in [10], in [11] and in assay [12] was inactive. For the same compound, in [13], the result was inactive. Moreover, the result in assay [7] was Active.
With `C=CC(=O)Nc1cc(Nc2nccc(-c3cn(C)c4ccccc34)n2)c(OC)cc1N(C)CCN1CCN(C(=O)COCCOCCOCCCCCCCl)CC1`, the outcome (in [14]; in the assay on HCC827) was Active.
Consider `CC(=O)N[C@@H](CSCC(=O)NCCOCCOCCOCC(=O)N(C)CCN(C[C@@H](C(=O)N1CCN(c2ncnc3c2[C@H](C)C[C@H]3O)CC1)c1ccc(Cl)cc1)C(C)C)C(=O)N[C@@H](CCCNC(=N)N)C(=O)N[C@H](C(=O)N[C@@H](CO)C(=O)N[C@@H](C)C(=O)O)C(C)C`, for which the result in [10] and in [12] was inactive. Further, in [15], the result was Active.
With `CC(=O)N[C@@H](CSCC(=O)NCCOCCOCC(=O)Nc1ccc2[nH]c(=O)n(C3CCN(Cc4ccc(-c5nc6cc[nH]c(=O)c6cc5-c5ccccc5)cc4)CC3)c2c1)C(=O)N[C@@H](CCCNC(=N)N)C(=O)N[C@H](C(=O)N[C@@H](CO)C(=O)N(C)[C@@H](Cc1ccccc1)C(=O)O)C(C)C`, the outcome in assay [6], in assay [7], in [8], in assay [9], in assay [10] and in [11] was Active. The result in assay [12] and in assay [13] was Active. The result in [16] was inactive.
As to `CC(=O)Nc1ccc2[nH]c(=O)n(C3CCN(Cc4ccc(-c5nc6cc[nH]c(=O)c6cc5-c5ccccc5)cc4)CC3)c2c1`, the Activity result in [17] was “Dose-dependent effect”.

For the origin of these results see ChEMBL document CHEMBL4354839, “Heterobifunctional Molecules Induce Dephosphorylation of Kinases-A Proof of Concept Study” (J Med Chem, 2020).
